In patent publication US20060211072A1, “Process, composition and kit for providing a stable whole blood calibrator/control” (Streck, Inc., priority 2005, published 2006):

Legend:
[1] = test system: glycolysis in whole blood; conditions: final concentration about 0.9 to 20 mM in blood sample; testing within 16 hours; cited from earlier work
[2] = test system: glycolysis in whole blood; assay: YSI glucose concentration over time in whole blood specimens with D,L glyceraldehyde added; assay type: cell-based
Protocol: FIG. 4 illustrates the YSI glucose concentration (mg/dL) of blood specimens containing EDTA at various final concentrations of a mixture of D,L glyceraldehydes at 0.0, 1.0, 5.0, 10.0 and 20.0 mM, obtained over 4 weeks of real time testing at about 2° C. to about 10° C.;
FIG. 5 illustrates the YSI 2300 (reference analyzer) glucose concentration (mg/dL) of blood specimens treated at various concentrations of D,L glyceraldehyde over 3 weeks at about 2° C. to about 10° C., wherein the control is an untreated blood sample;
In one method, a sample containing a cellular component, (i.e. RBCs, WBCs) is collected into a microfuge or vacuum tube, e.g. […]®, (such as supplied by Becton, Dickinson and Company, Franklin Lakes, N.J.). The initial concentration of glucose in the sample can be 50 […].
The vacuum tube may contain any appropriate anticoagulant agent known to one of ordinary skill, including oxalate, EDTA, citrate, heparin or combination thereof, to form a suspension. If used, the anticoagulant may be added together simultaneously, or sequentially, to the sample.
The resulting suspension is incubated at about 2° C. to about 30° C. and allowed to undergo glycolysis until the glucose level is less than about 20 mg/dL. […]

[3] = test system: glycolysis in red blood cells; assay: YSI glucose recovery of red blood cells treated with glyceraldehyde, washed and recombined with plasma and glucose; assay type: cell-based; conditions: RBCs treated with 20, 35 and 50 mM for 72 hours at 2-10 C; after 34 days (FIG. 6)
Protocol: FIG. 6 illustrates the YSI 2300 (reference analyzer) glucose concentration (mg/dL) of blood specimens at various concentrations of D,L glyceraldehyde respectively over 4 weeks at about 2° C. to about 10° C., wherein the control is untreated blood sample. Red blood cells were treated, washed and recombined with plasma and glucose.
RBC Treatment w/ Glyceraldehyde & Subsequent Removal
• 1) Employ fresh whole blood collected in standard anticoagulant (i.e. EDTA, heparin, sodium citrate) from a healthy adult population. Alternative blood sources may include bovine, avian, porcine, equine, goat, or alligator. • 2) Allow sufficient time for the natural enzymatic breakdown of glucose to occur (i.e. glycolysis). Deplete glucose concentration to less than about 20 mg/dl. Preferred storage at 2°-30° C. • 3) Separate RBC cellular component from plasma fraction via gravity settling and or centrifugation. If desired, the removed plasma fraction may be retained for reintroduction. • 4) Wash RBC cellular component with isotonic phosphate buffered saline solution (3×). Exchange diluent via centrifugation is preferred (15 minutes @ 1500 rpm (650×g). • 5) Adjust RBC concentration to approximately 4.0×10^6/mm^3±0.25×10^6/mm^3. […]

| SMILES | glucose loss [1] | YSI glucose concentration loss ([2]; 20.0 mM D,L glyceraldehyde in EDTA, at 4 weeks, about 2-10 C (FIG. 4)) | YSI glucose concentration loss ([2]; 30.0 mM D,L glyceraldehyde in EDTA, glucose burned down then added back, at 3 weeks, about 2-10 C (FIG. 5)) | loss in glucose recovery [3] [%] |
| --- | --- | --- | --- | --- |
| O=CC(O)CO (stereo not shown) [glyceraldehyde, 2,3-dihydroxypropanal] | negligible glucose loss |  |  |  |
| O=CC(O)CO (racemic) [D,L glyceraldehyde, 2,3-dihydroxypropanal] |  | less than 10% | less than 3.5% | < 5 |
